Data set [1] in a line: Storage stability of aqueous liquid compositions of fludrocortisone acetate (Example 1), HPLC. The format is physicochemical. The following applies: conclusion from Tables 1a-1c, 40° C., 75% RH, three months. On the procedure:
Storage conditions of temperature (40° C.) and relative humidity (75%) applied for a period of three months. Quantification of fludrocortisone acetate and its degradation impurities was performed by HPLC.

The conditions of data set [2]: relative to cortisol; cited from earlier work.

With `CC(=O)OCC(=O)[C@@]1(O)CC[C@H]2[C@@H]3CCC4=CC(=O)CC[C@]4(C)[C@@]3(F)[C@@H](O)C[C@@]21C` [Fludrocortisone acetate], in data set [1], the “stability of fludrocortisone acetate in aqueous compositions” value was “unstable and easily hydrolyzed”. In data set [2], the glucocorticoid potency is recorded as 10 times.

(Values after patent publication US11771706B2, “Oral solutions comprising fludrocortisone acetate” (LABOMED PHARMACEUTICAL COMPANY S.A., priority 2020, dated 2023).)
